The values that follow come from US9809623B2, “α4β7 peptide monomer and dimer antagonists” (Protagonist Therapeutics, Inc., priority 2014, dated 2017).

One series in a line: Plasma Stability Assay. The format is in vitro ADME. Particulars: rat, Table 4-C, t1/2. Here is the method:
0.5 mL of rat plasma (one tube per peptide, volume depends on how many time points are to be collected, 50 μL per time point) was added to each well of a 96-well polypropylene plate, and the tubes were incubated in a heated water bath, preset to 37° C. with gentle shaking. 1 μL of 10 mM peptide stock solution was added to each tub, and then 200 μL of Acetonitrile w/0.1% Formic Acid was added to each tube (1:4). Samples were collected at the following time points: 0, 10, 30, 45, 60, 120, 180 mins. When all time points were collected, the plate was centrifuged at 5000 rpm for 5 mins. LCM analysis was performed by pipetting 100 μL of each sample to appropriate well of a 96-well deep plate. 100 μL of an internal standard peptide (1 ug/mL) was added in Mobile Phase A to each well. The plate was vortexed and injected

Series [1] can be described thus: Dithiothreitol (DTT) Redox Stability Assay. The series is classed as physicochemical. Conditions: Table 4-C, t1/2, 0.5 mM DTT. The procedure: For each peptide tested, the DTT stability assay was conducted by adding 5 μl of a 10 mM peptide stock solution in DMSO to 1 ml of 100 mM Tris-Cl, pH 7.5 (final peptide concentration is 50 μM). At time 0 min, 5 ul of a freshly thawed 100 mM DTT solution was added to the incubation tube containing the peptide, such that the final DTT concentration was 0.5 mM. The reactions were incubated at room temperature. At different time points up to 120 minutes (20 min, 40 min, 80 min, 120 min), 50 ul aliquots were removed, and the reaction was quenched by adding 10 μl of 5M acetic acid. To measure disappearance of the parent peptide, the quenched samples (30 μl) were analyzed by reverse phase HPLC and UV absorbance at 220 nm. The fraction oxidized remaining was graphed versus time, and half-lives were calculated by fitting to a first-order exponential decay equation using Excel.

Series [2] is described as follows: Simulated Gastric Fluid (SGF) Assay. The series is classed as in vitro ADME. Particulars: pig, simulated gastric fluid (SGF) with porcine pepsin, pH 2; Table 4-C, t1/2. The procedure:
SGF was prepared by adding 20 mg NaCl, 32 mg porcine pepsin (MP Biochemicals, catalog 02102599), and 70 μl HCl to 10 ml water (final pH=2). Aliquots of SGF (0.5 ml each) were pre-warmed at 37° C. For each peptide tested, to start the reaction, 1 μl of peptide stock solution (10 mM in DMSO) was added to 0.5 ml SGF and thoroughly mixed such that the final peptide concentration was 20 μM. The reactions were incubated at 37° C. with gentle shaking. At each time point (0, 15, 30, 60 min), 50 μl aliquots were removed and added to 200 ul acetonitrile containing 0.1% formic acid to quench the reaction. Samples were stored at 4° C. until the end of the experiment and centrifuged at 10,000 rpm for 5 minutes. Aliquots of the supernatant were removed, diluted 1:1 into distilled water containing internal standard, and analyzed by LCMS/MS. Percent remaining at each timepoint was calculated based on the peak area response ratio of test compound to internal standard. Time 0 was set to 100%, and all later timepoints were calculated relative to time 0. Half-lives were calculated by fitting to a first-order exponential decay equation using GraphPad.

The target of another series is T1, α4β7 (Mus musculus, UniProt P26011+Q00651).
T1 construct: host or cells: TK1 mouse T cells
Kind of series: α4β7 Cell Adhesion Assay (Mouse), TK1 cells. The format is cell-based. Particulars: Table 4-B; read-out: Cell Adhesion α4β7 Mouse IC50. The method in brief: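 Mouse TK1 cells in DMEM with 0.1% BSA, 10 mM HEPES pH 7 and 1 mM MnCl2 were allowed to adhere for 30-45 min at 37 °C to plates coated with recombinant human MAdCAM-1 Fc (200 ng/well) in the presence of serially diluted peptides. Adherent cells were quantified by MTT absorbance at 570 nm, with no-cell background subtracted for dose response.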

Numbered stars: 1 amine (or outer) side, 2 acyl side, 3 side chain; on linkers, the order of the positions; unused ones are H or OH. Bridge positions count the residues as written; N and C are the ends. Square brackets hold non-standard residues; d marks the D form. Peptide text beside a SMILES is read from it. I, II: the chains in the order shown. Diglycolyl = O=C(COCC(=O)[*:2])[*:1]; NMeR = CN[C@@H](CCCNC(=N)N)C(=O)O; Pen = CC(C)(S)[C@H](N)C(=O)O

T1 sequence (Q00651 34-1039 limits assumed): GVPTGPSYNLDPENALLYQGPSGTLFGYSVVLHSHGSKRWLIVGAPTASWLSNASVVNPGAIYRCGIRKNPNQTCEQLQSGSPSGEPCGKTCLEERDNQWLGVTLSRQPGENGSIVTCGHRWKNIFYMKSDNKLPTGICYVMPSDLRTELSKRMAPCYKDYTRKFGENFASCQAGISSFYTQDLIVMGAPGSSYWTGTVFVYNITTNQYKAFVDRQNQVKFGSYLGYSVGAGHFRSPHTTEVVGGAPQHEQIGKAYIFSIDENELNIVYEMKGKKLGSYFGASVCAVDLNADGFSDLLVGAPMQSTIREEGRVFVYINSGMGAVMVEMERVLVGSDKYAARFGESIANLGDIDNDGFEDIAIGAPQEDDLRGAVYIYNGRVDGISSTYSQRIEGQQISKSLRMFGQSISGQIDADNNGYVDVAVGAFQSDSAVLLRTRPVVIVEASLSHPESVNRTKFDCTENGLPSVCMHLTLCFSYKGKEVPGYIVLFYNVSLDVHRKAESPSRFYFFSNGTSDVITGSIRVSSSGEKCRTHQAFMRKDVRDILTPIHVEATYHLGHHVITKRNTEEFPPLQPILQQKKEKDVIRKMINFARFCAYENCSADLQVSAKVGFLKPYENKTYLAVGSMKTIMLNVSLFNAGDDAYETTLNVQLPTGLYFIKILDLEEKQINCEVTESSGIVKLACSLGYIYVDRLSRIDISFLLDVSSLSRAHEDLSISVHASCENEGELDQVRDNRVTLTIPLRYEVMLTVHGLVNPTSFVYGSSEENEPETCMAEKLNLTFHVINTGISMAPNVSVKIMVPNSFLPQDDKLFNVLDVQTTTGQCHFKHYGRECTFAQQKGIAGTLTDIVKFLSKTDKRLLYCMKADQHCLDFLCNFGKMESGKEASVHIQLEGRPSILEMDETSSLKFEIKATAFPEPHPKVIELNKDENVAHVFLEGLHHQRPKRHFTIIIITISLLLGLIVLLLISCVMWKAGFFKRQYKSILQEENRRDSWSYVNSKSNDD
T1 sequence (P26011 20-806): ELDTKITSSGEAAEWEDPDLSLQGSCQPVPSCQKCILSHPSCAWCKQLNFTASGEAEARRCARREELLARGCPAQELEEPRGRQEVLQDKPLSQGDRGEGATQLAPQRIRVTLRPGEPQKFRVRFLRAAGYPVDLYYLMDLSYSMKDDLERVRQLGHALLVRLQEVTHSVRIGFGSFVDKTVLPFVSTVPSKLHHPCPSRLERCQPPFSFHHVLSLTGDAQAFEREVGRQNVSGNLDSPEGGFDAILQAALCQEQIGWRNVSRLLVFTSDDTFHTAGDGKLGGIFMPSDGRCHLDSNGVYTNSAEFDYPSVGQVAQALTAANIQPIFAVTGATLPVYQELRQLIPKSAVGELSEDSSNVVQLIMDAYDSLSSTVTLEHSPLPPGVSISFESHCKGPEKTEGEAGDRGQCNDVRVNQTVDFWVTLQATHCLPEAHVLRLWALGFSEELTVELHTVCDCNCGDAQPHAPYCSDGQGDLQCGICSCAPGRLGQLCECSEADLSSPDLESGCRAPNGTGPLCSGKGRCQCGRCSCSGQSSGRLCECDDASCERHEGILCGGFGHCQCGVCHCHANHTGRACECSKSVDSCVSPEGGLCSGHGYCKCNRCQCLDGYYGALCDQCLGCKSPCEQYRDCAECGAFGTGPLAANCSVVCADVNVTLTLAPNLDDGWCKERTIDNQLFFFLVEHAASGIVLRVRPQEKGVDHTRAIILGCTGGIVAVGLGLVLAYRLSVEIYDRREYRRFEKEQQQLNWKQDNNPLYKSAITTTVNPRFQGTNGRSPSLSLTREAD

For orientation: half-life means the time in which the quantity being followed falls by half. Low readings indicate fast loss, high ones slow loss. In turn, `CC(=O)N[C@H]1CSSC(C)(C)[C@@H](C(=O)N[C@H](CCCCN)C(N)=O)NC(=O)[C@H](CC(C)C)NC(=O)[C@H]([C@@H](C)O)NC(=O)[C@H](CC(=O)O)NC(=O)[C@H](CO)NC(=O)[C@H](CCCNC(=N)N)N(C)C1=O` [compound 202, Ac-C-N-Me-R-S-D-T-L-Pen-k-NH2] (Ac-C[NMeR]SDTL[Pen][dK]-NH2; disulfide 1-7) came in with a half-life at 20 μM in the series “Plasma Stability Assay” above 6 h. In addition, the “DTT Min” value in series [1] was determined as 42 min.

The term IC50 denotes the midpoint of a concentration-inhibition curve. Regarding `CC(=O)N[C@@H]1C(=O)N(C)[C@@H](CCCNC(=N)N)C(=O)N[C@@H](CO)C(=O)N[C@@H](CC(=O)O)C(=O)N[C@@H]([C@@H](C)O)C(=O)N[C@@H](CC(C)C)C(=O)N[C@H](C(=O)N[C@@H](Cc2c[nH]c3ccccc23)C(=O)N[C@H](CCC(=O)O)C(=O)N[C@H](CCCCNC(=O)COCC(=O)NCCCC[C@@H](NC(=O)[C@@H](CCC(=O)O)NC(=O)[C@H](Cc2c[nH]c3ccccc23)NC(=O)[C@H]2NC(=O)[C@H](CC(C)C)NC(=O)[C@H]([C@@H](C)O)NC(=O)[C@H](CC(=O)O)NC(=O)[C@H](CO)NC(=O)[C@H](CCCNC(=N)N)N(C)C(=O)[C@@H](NC(C)=O)C(C)(C)SSC2(C)C)C(N)=O)C(N)=O)C(C)(C)SSC1(C)C` [compound 211, (Ac-Pen-N-Me-R-S-D-T-L-Pen-W-e-k-NH2)2-DIG] (I: Ac-[Pen][NMeR]SDTL[Pen]W[dE][dK]-NH2 / II: Ac-[Pen][NMeR]SDTL[Pen]W[dE][dK]-NH2; disulfide I:1-I:7, II:1-II:7 (inferred); linker I:10-II:10 via Diglycolyl (inferred)), the half-life at 20 μM in series [2] is above 1 h. Further, the “DTT Min” value in series [1] is above 120 min. Also, the 50% inhibitory concentration (IC50) at α4β7 was 7.3 nM.

With `CC(=O)N[C@H]1CSSC(C)(C)[C@@H](C(=O)N[C@@H](CCC(=O)O)C(=O)N[C@H](CCCCNC(=O)COCC(=O)NCCCC[C@@H](NC(=O)[C@H](CCC(=O)O)NC(=O)[C@H]2NC(=O)[C@H](CC(C)C)NC(=O)[C@H]([C@@H](C)O)NC(=O)[C@H](CC(=O)O)NC(=O)[C@H](CO)NC(=O)[C@H](CCCNC(=N)N)N(C)C(=O)[C@@H](NC(C)=O)CSSC2(C)C)C(N)=O)C(N)=O)NC(=O)[C@H](CC(C)C)NC(=O)[C@H]([C@@H](C)O)NC(=O)[C@H](CC(=O)O)NC(=O)[C@H](CO)NC(=O)[C@H](CCCNC(=N)N)N(C)C1=O` [compound 205, (Ac-C-N-Me-R-S-D-T-L-Pen-E-k-NH2)2-DIG] (I: Ac-C[NMeR]SDTL[Pen]E[dK]-NH2 / II: Ac-C[NMeR]SDTL[Pen]E[dK]-NH2; disulfide I:1-I:7, II:1-II:7 (inferred); linker I:9-II:9 via Diglycolyl (inferred)), the half-life at 20 μM in the series “Plasma Stability Assay” was above 6 h. In addition, the “DTT Min” value in series [1] stood at 42 min.

For the compound `CC(=O)N[C@@H]1C(=O)N(C)[C@@H](CCCNC(=N)N)C(=O)N[C@@H](CO)C(=O)N[C@@H](CC(=O)O)C(=O)N[C@@H]([C@@H](C)O)C(=O)N[C@@H](CC(C)C)C(=O)N[C@H](C(=O)N[C@@H](Cc2c[nH]c3ccccc23)C(=O)N[C@H](CCCCN)C(N)=O)C(C)(C)SSC1(C)C` [compound 208, Ac-Pen-N-Me-R-S-D-T-L-Pen-W-k-NH2] (Ac-[Pen][NMeR]SDTL[Pen]W[dK]-NH2; disulfide 1-7), the half-life at 20 μM in series [2] is above 6 h. Further, the “DTT Min” value in series [1] is above 120 min.

For `CC(=O)N[C@H]1CSSC[C@@H](C(=O)NCC(=O)N[C@@H](CCC(=O)O)C(=O)N[C@@H](CCCCN)C(=O)O)NC(=O)[C@H](CC(C)C)NC(=O)[C@H]([C@@H](C)O)NC(=O)[C@H](CC(=O)O)NC(=O)[C@H](CO)NC(=O)[C@H](CCCNC(=N)N)N(C)C1=O` [compound 199, Ac-C-N-Me-R-S-D-T-L-C-G-E-K-OH] (Ac-C[NMeR]SDTLCGEK-OH; disulfide 1-7), the values for the half-life at 20 μM (in series [2]; in the series “Plasma Stability Assay”) were above 6 h and 1.35 h, respectively.
